From US10196482B2, “Mixed alkyl terminated polyether dendrons” (BASF SE, priority 2014, dated 2019)
In brackets after ≈: the same amount, converted by molar mass. Blank lines part the entries; values can stand above or below the compound they belong to.

Key:
[1] = Solubilization of actives in 3 wt-% polymer solution (high-throughput, UV/VIS); assay type: physicochemical
Experimental: Solubilization measurements were carried out with a highthroughput screening robot. This set up dosed 10 mg solid active and […] of the respective 3 wt-% liquid polymer solution (in CIPAC water D) into wells on a micro titer plate. After the addition of stirring bars and 24 hours incubation time the samples were filtrated via polypropylene filters in order to separate dissolved active and its solid form ated. The amount of solubilized active was determined via UV/VIS spectroscopy.

[2] = at 20° C.; cited from earlier work
[3] = 10 mg solid active, without polymer or in 3 wt-% polymer solution in CIPAC water D, 24 hours

Solubility of BAS 750 F [1, 3]: 15 pmm
Compound: CC(O)(Cn1cncn1)c1ccc(Oc2ccc(Cl)cc2)cc1C(F)(F)F (centres unmarked) [BAS 750 F, 2-[4-(4-chlorophenoxy)-2-(trifluoromethyl)phenyl]-1-(1H-1,2,4-triazol-1-yl)propan-2-ol]

Compound: N#Cc1nn(-c2c(Cl)cc(C(F)(F)F)cc2Cl)c(N)c1[S+]([O-])C(F)(F)F (centres unmarked) [Fipronil, fipronil]
Solubility of fipronil [1]: 12 pmm

Solubility of carbamazepine [1, 3]: 181 pmm
Compound: NC(=O)N1c2ccccc2C=Cc2ccccc21 [carbamazepine]

Solubility of fluxapyroxad ([1]; 10 mg solid active, alone or in 3 wt-% polymer solution in CIPAC water D, 24 hours): 10 pmm
Compound: Cn1cc(C(=O)Nc2ccccc2-c2cc(F)c(F)c(F)c2)c(C(F)F)n1 [fluxapyroxad]
water solubility [2]: 4 µg/mL (≈ 10.5 µM)
